Assay results from the CheMixHub viscosity set.

Assay: xn = mol fraction of the nth substance listed

Nc1cccc(Cl)c1 + CCC(C)O
viscosity [mPa·s], 101 kPa
Conditions	x1 = 0.0889	x1 = 0.1799	x1 = 0.2733	x1 = 0.3691	x1 = 0.4674	x1 = 0.5683	x1 = 0.6719	x1 = 0.7783	x1 = 0.8876
303.15 K	2.756	2.919	3.087	3.256	3.422	3.585	3.744	3.904	4.07
308.15 K	2.318	2.483	2.65	2.817	2.983	3.148	3.313	3.48	3.654
313.15 K	2.001	2.157	2.312	2.467	2.623	2.779	2.937	3.097	3.261
318.15 K	1.706	1.857	2.003	2.147	2.29	2.434	2.579	2.727	2.874

CC12CCC(CC1)C(C)(C)O2 + CCCCCC
298.15 K, 101.33 kPa
Conditions	viscosity [mPa·s]
x2 = 0.0339	2.317
x2 = 0.0677	2.11
x2 = 0.1616	1.642
x2 = 0.2491	1.325
x2 = 0.3454	1.063
x2 = 0.4734	0.8
x2 = 0.6205	0.593
x2 = 0.7181	0.491
x2 = 0.8281	0.4
x2 = 0.8953	0.359
x2 = 0.9363	0.33

CCCOC(=O)CC + CCCCCC
298.15 K, 101.33 kPa
Conditions	viscosity [mPa·s]
x1 = 0.0581	0.299
x1 = 0.1227	0.31
x1 = 0.2151	0.33
x1 = 0.3111	0.355
x1 = 0.3983	0.379
x1 = 0.4343	0.389
x1 = 0.4898	0.401
x1 = 0.5466	0.421
x1 = 0.586	0.433
x1 = 0.68	0.465
x1 = 0.8894	0.557
x1 = 0.9133	0.573

Cc1ccccc1Cl + CCCCCC
viscosity [mPa·s], 100 kPa
Conditions	298.15 K	308.15 K	318.15 K
x1 = 0.0629	0.341	0.315	0.292
x1 = 0.1435	0.369	0.338	0.313
x1 = 0.2364	0.398	0.37	0.343
x1 = 0.3403	0.436	0.401	0.37
x1 = 0.4252	0.477	0.437	0.401
x1 = 0.4608	0.499	0.451	0.414
x1 = 0.5249	0.54	0.485	0.445
x1 = 0.5742	0.574	0.515	0.471
x1 = 0.6237	0.611	0.546	0.496
x1 = 0.6816	0.657	0.585	0.531
x1 = 0.7398	0.705	0.624	0.565
x1 = 0.8335	0.785	0.7	0.63
x1 = 0.9276	0.889	0.789	0.706

C1C[C@@H]2[C@H]3CC[C@H](C3)[C@@H]2C1 + CCCCCCCC
viscosity [mPa·s], 100 kPa
Conditions	x1 = 0.1007	x1 = 0.2005	x1 = 0.2991	x1 = 0.4	x1 = 0.5001	x1 = 0.5986	x1 = 0.6988	x1 = 0.8019	x1 = 0.9005
293.15 K	0.616	0.697	0.806	0.956	1.085	1.282	1.537	1.896	2.342
298.15 K	0.582	0.655	0.756	0.892	1.007	1.187	1.415	1.735	2.13
303.15 K	0.551	0.618	0.711	0.83	0.94	1.102	1.311	1.597	1.95
308.15 K	0.523	0.585	0.67	0.78	0.879	1.027	1.215	1.475	1.793
313.15 K	0.499	0.555	0.634	0.733	0.825	0.96	1.13	1.367	1.654

CCCOC(=O)CC + CCCCCCCCCC
298.15 K, 101.33 kPa
Conditions	viscosity [mPa·s]
x2 = 0.0964	0.647
x2 = 0.1323	0.65
x2 = 0.1683	0.653
x2 = 0.2534	0.661
x2 = 0.3486	0.672
x2 = 0.3989	0.68
x2 = 0.5459	0.706
x2 = 0.6381	0.728
x2 = 0.7337	0.756
x2 = 0.8679	0.802
x2 = 0.9275	0.827

CCC(C)c1ccccc1 (centres undefined) + CCCCCCCCCCCC
viscosity [mPa·s], 102 kPa
Conditions	x1 = 0.1008	x1 = 0.2007	x1 = 0.2993	x1 = 0.4003	x1 = 0.4998	x1 = 0.62	x1 = 0.6996	x1 = 0.7999	x1 = 0.9004
293.15 K	1.41	1.33	1.26	1.19	1.131	1.064	1.027	0.992	0.959
303.15 K	1.19	1.128	1.072	1.02	0.971	0.923	0.896	0.862	0.835
313.15 K	1.015	0.973	0.935	0.893	0.853	0.812	0.784	0.755	0.732
323.15 K	0.888	0.852	0.817	0.783	0.751	0.717	0.694	0.669	0.649

CCCOC(=O)CC + CCCCCCCCCCCCCC
298.15 K, 101.33 kPa
Conditions	viscosity [mPa·s]
x2 = 0.0774	0.704
x2 = 0.1347	0.757
x2 = 0.2041	0.828
x2 = 0.2829	0.915
x2 = 0.3321	0.972
x2 = 0.4571	1.13
x2 = 0.5528	1.263
x2 = 0.6895	1.473
x2 = 0.8219	1.706
x2 = 0.9084	1.878

CCCCCCCCCCCCCC[P+](CCCCCC)(CCCCCC)CCCCCC.c1c[n-]nn1 + CCCCCCCCCCCCCC[P+](CCCCCC)(CCCCCC)CCCCCC.O=S(=O)([N-]S(=O)(=O)C(F)(F)F)C(F)(F)F
viscosity [mPa·s], 100 kPa
Conditions	x1 = 0.098	x1 = 0.201	x1 = 0.3	x1 = 0.401	x1 = 0.5	x1 = 0.599	x1 = 0.7	x1 = 0.797	x1 = 0.901
293.15 K	425	473	495	465	502	539	533	547	553
298.15 K	313	348	362	338	363	390	385	393	397
303.15 K	236	261	270	251	270	288	284	289	291
308.15 K	181	200	207	191	204	218	214	217	220
313.15 K	142	156	160	148	158	168	165	167	168
318.15 K	112	124	127	117	124	132	129	131	132
323.15 K	91	100	102	94	100	106	103	104	106

Nc1cccc(Cl)c1 + CCCCCCCCCCO
viscosity [mPa·s], 101 kPa
Conditions	x1 = 0.1699	x1 = 0.3153	x1 = 0.4411	x1 = 0.5511	x1 = 0.6481	x1 = 0.7342	x1 = 0.8112	x1 = 0.8805	x1 = 0.9431
303.15 K	8.772	7.947	7.247	6.641	6.113	5.648	5.238	4.871	4.546
308.15 K	7.358	6.71	6.16	5.687	5.274	4.912	4.593	4.31	4.061
313.15 K	6.213	5.693	5.254	4.878	4.549	4.262	4.01	3.788	3.596
318.15 K	5.338	4.899	4.532	4.217	3.943	3.704	3.494	3.311	3.153
